“And” between values parts separate entries of the source, which are not always exact repeats. Equal entries are not always repeated.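 Protocol summary: plate cells (96-well), add compound at 5 concentrations, incubate 48 h, interpolate endpoints linearly. The concentration for 50% growth inhibition is given as GI50. TGI is the concentration that stops growth completely.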

Among the test systems are SK-OV-3 ovarian; NCI-H522 lung; MDA-MB-435; NCI-H460 lung; M14 melanoma; COLO 205 colon; SNB-19 CNS; A498 renal.
Common to all, as to assay: growth of human tumour cells (NCI), 48 h

On to `COc1cc2c3c(n(CCCN(CCCN(CCCn4c5c(c6ccccc6c4=O)C(=O)c4ccccc4-5)C(=O)OC(C)(C)C)C(=O)OC(C)(C)C)c(=O)c2cc1OC)-c1cc2c(cc1C3=O)OCO2`, for which the GI50 with SK-OV-3 ovarian is > 100 µM; in the test on NCI-H522 lung, > 100 µM; in the test on MDA-MB-435 it was > 100 µM; in the test with NCI-H460 lung it was 21.5 µM; with M14 melanoma it was > 100 µM; in the test on COLO 205 colon, > 100 µM. Moreover, in the test with SNB-19 CNS, the GI50 was > 100 µM. Moreover, the TGI with SK-OV-3 ovarian, in the test with NCI-H522 lung, in the test with MDA-MB-435, in the test with NCI-H460 lung, in the test on M14 melanoma and with COLO 205 colon was > 100 µM each time. The TGI in the test on SNB-19 CNS is > 100 µM.

With `CCn1c(-c2nonc2N)nc2c(C#CC(C)(C)O)ncc(OC3CCNCC3)c21`, the GI50 in the test with SK-OV-3 ovarian was 3.86 µM; with NCI-H522 lung, 4.42 µM; in the test with MDA-MB-435, 13.6 µM; in the test on NCI-H460 lung, 6.86 µM; in the test on A498 renal it was 0.0958 µM; in the test on M14 melanoma, 21.6 µM. Besides, the figures for the GI50 in the test with COLO 205 colon and with SNB-19 CNS were 4.89 µM and 7.83 µM, respectively. The TGI is > 25 µM in the test on SK-OV-3 ovarian; 8.82 µM in the test with NCI-H522 lung; > 25 µM with MDA-MB-435; > 25 µM in the test with NCI-H460 lung; 13.4 µM in the test with A498 renal; > 25 µM with M14 melanoma. The TGI in the test on COLO 205 colon was > 21.9 µM; in the test on SNB-19 CNS it was > 25 µM.

On to `O=C(O)CCCCn1ccc(=O)[nH]c1=O`, for which the TGI in the test on SK-OV-3 ovarian, with NCI-H522 lung, in the test on MDA-MB-435, in the test with NCI-H460 lung, in the test with A498 renal and with M14 melanoma was > 100 µM throughout. For the same compound, the TGI with COLO 205 colon and in the test on SNB-19 CNS was > 100 µM throughout.

In the case of `CS(=O)(=O)CCNCc1ccc(-c2ccc3ncnc(Nc4ccc(OCc5cccc(F)c5)c(Cl)c4)c3c2)o1`, the GI50 in the test with SK-OV-3 ovarian was 0.0681 µM and 0.0409 µM and 0.0441 µM; in the test with NCI-H522 lung, 0.28 µM and 0.397 µM and 0.815 µM; in the test on MDA-MB-435 it was > 10 µM and 4.38 µM and 7.84 µM; in the test with NCI-H460 lung, > 10 µM and 4.11 µM and 8.98 µM; in the test on A498 renal, 2.32 µM and 1.98 µM and 3.67 µM; with M14 melanoma, 8.6 µM and 2.56 µM and 4.22 µM. Moreover, the GI50 with COLO 205 colon is > 10 µM and > 78.8 µM and 10.3 µM; in the test with SNB-19 CNS, > 10 µM and 99.6 µM and 17.7 µM. Besides, the TGI in the test with SK-OV-3 ovarian was > 10 µM and > 100 µM and 31.7 µM; with NCI-H522 lung it was > 10 µM and > 100 µM and 28.9 µM; in the test with MDA-MB-435, > 10 µM and > 30.8 µM and 34.1 µM; in the test with NCI-H460 lung, > 10 µM and > 29.3 µM and 48.7 µM; in the test with A498 renal, > 10 µM and > 33 µM and 23.8 µM; in the test with M14 melanoma, > 10 µM and > 20.2 µM and 12.2 µM. Moreover, the TGI was > 10 µM and > 100 µM and 33.3 µM with COLO 205 colon; > 10 µM and > 100 µM and 66.7 µM in the test with SNB-19 CNS.

Consider `O=C([O][Hg][c]1ccccc1)c1ccccc1`, for which the GI50 in the test with SK-OV-3 ovarian was 4.03 µM; in the test with NCI-H522 lung, 0.275 µM; in the test on MDA-MB-435, 1.55 µM; in the test with NCI-H460 lung, 2.6 µM; in the test on A498 renal, 1.85 µM; in the test with M14 melanoma, 1.36 µM. In addition, the GI50 in the test with COLO 205 colon was 1.89 µM; in the test with SNB-19 CNS it was 3.32 µM. Also, the TGI in the test with SK-OV-3 ovarian worked out at 11.9 µM; in the test on NCI-H522 lung it was 0.754 µM; in the test with MDA-MB-435, 3.1 µM; in the test on NCI-H460 lung it was 9.27 µM; with A498 renal, 7.33 µM; in the test on M14 melanoma, 2.94 µM. Further, the TGI in the test with COLO 205 colon turned out to be 3.35 µM; with SNB-19 CNS, 8.7 µM.

Turning to `COc1cc2c(NCCCCCO)ncnc2c(OC)c1OC`, the TGI in the test on SK-OV-3 ovarian, in the test with NCI-H522 lung, with MDA-MB-435, with NCI-H460 lung, in the test on A498 renal and in the test with M14 melanoma was > 100 µM in each case. Further, the TGI with COLO 205 colon and in the test on SNB-19 CNS was > 100 µM in each case.

Take `COc1cc(OC)cc(Oc2cnc3cc(N)cc(N)c3n2)c1`: the GI50 with SK-OV-3 ovarian was 23.7 µM; in the test with NCI-H522 lung, 18.7 µM; in the test on MDA-MB-435, 2.87 µM; in the test with NCI-H460 lung it was 19.4 µM; with A498 renal, 11.8 µM; in the test on M14 melanoma, 13.4 µM. Also, the results for the GI50 with COLO 205 colon and with SNB-19 CNS were 14 µM and 17.5 µM, respectively. In addition, the TGI in the test with SK-OV-3 ovarian stood at 74.5 µM; in the test with NCI-H522 lung, 37.3 µM; in the test on MDA-MB-435, 6.76 µM; in the test with NCI-H460 lung it was 41.2 µM; in the test with A498 renal, 39.9 µM; with M14 melanoma, 26.8 µM. Also, the TGI amounted to 37.5 µM in the test on COLO 205 colon and 45.6 µM in the test on SNB-19 CNS.

For the compound `CC(=O)OCC12CN(C#N)C3C4COC(CC41)C1(C(=O)N(C)c4ccccc41)C32` (configuration not stated), the TGI in the test with SK-OV-3 ovarian was > 100 µM; with NCI-H522 lung it was 24.7 µM; in the test with MDA-MB-435, > 100 µM; in the test with NCI-H460 lung it was 94.5 µM; with M14 melanoma, 61.9 µM; with COLO 205 colon, 35.8 µM.

`COc1ccc(-c2cc(/C=C3\C(=O)Nc4cc(Cl)ccc43)[nH]n2)cc1`: the GI50 is 4.23 µM in the test on SK-OV-3 ovarian; 1.88 µM in the test with NCI-H522 lung; 0.416 µM in the test on MDA-MB-435; 3.43 µM in the test on NCI-H460 lung; 2.38 µM in the test with A498 renal; 2.7 µM with M14 melanoma. Also, the GI50 with COLO 205 colon was 2.06 µM; with SNB-19 CNS, 4.65 µM. In addition, the TGI is > 100 µM in the test on SK-OV-3 ovarian; 6.77 µM in the test on NCI-H522 lung; 2.11 µM with MDA-MB-435; 23.1 µM in the test on NCI-H460 lung; 7.04 µM in the test on A498 renal; > 100 µM in the test on M14 melanoma. The results for the TGI with COLO 205 colon and with SNB-19 CNS were 5.51 µM and > 100 µM, respectively.

`O=[N+]([O-])c1ccc(/C=C/c2nc3ccc(Cl)cc3[nH]2)cc1`: the GI50 was > 100 µM in the test with SK-OV-3 ovarian; 14.1 µM with NCI-H522 lung; 5.36 µM in the test with MDA-MB-435; 17.8 µM in the test with NCI-H460 lung; 13.9 µM with A498 renal; > 100 µM with M14 melanoma. Moreover, the GI50 with COLO 205 colon and in the test with SNB-19 CNS was > 100 µM in each case. Also, the TGI is > 100 µM in the test with SK-OV-3 ovarian; > 100 µM in the test with NCI-H522 lung; > 100 µM with MDA-MB-435; 84.9 µM in the test with NCI-H460 lung; 44.2 µM in the test with A498 renal; > 100 µM in the test on M14 melanoma. Also, the TGI in the test on COLO 205 colon and in the test with SNB-19 CNS was > 100 µM throughout.
